Source: patent publication US20160115540A1, “PRODRUGS AND DRUGS” (Biogen MA Inc., priority 2013, published 2016)
Where a name gives a salt, the structure may show the parent alone.

Test system: jejunum
Assay: Transcriptional profiling on Affymetrix GeneChips, single dose, naïve mice: jejunum
Assay type: in vivo, C57BL/6 mice
Description: Treated mice were sacrificed at 2, 7, or 12 hours. Tissues (liver, spleen, kidney, jejunum, cortex, hippocampus, striatum and whole blood) were collected and analyzed by transcriptional profiling on mouse Affymetrix GeneChips.
Tissues (liver, spleen, kidney, jejunum, cortex, hippocampus, striatum and whole blood) were collected and analyzed by transcriptional profiling on mouse Affymetrix GeneChips.
Animals were exposed to CO2 and whole blood collected via cardiac puncture. Two 100 μl aliquots of whole blood were collected in 1.5 mL microcentrifuge tubes and snap frozen in liquid nitrogen. Peripheral (liver, spleen, kidney and jejunum) and CNS brain (cerebellum, hippocampus, striatum and cortex) tissues were harvested and snap frozen in liquid nitrogen, with special care taken to collect tissues of similar size and from the same location. All samples were stored at −80° C. until RNA extraction was conducted.
For RNA preparation, frozen tissues were placed in 2 mL RNAse-free 96-well blocks with 1.5 mL QIAzol Lysis Reagent (QIAgen) and a 3.2 mm stainless steel bead (BioSpec Products, Bartlesville, Okla.). Tissues were disrupted for four cycles of 45 seconds in a Mini-Beadbeater (Biospec Products). RNA was extracted in chloroform and the aqueous phase was mixed with an equal volume of 70% ethanol. Extracted RNA was applied to RNeasy 96 plates and purified by the spin method according to the manufacturer's protocol (RNeasy 96 Universal Tissue Protocol, QIAgen, Hilden Germany).
Automated sample amplifications and biotin labelings were carried out using the NuGEN Ovation RNA Amplification system V2 (Cat #3100), Ovation WB reagent (Cat #1300) and Encore Biotin module (Cat #4200) (NuGEN Technologies, Inc, San Carlos, Calif.) according to manufacturer's recommendations using an Arrayplex automated liquid handler (Beckman Coulter, Indianapolis, Ind.). Two micrograms of biotin labeled sscDNA probe were hybridized to Affymetrix GeneChip Affymetrix HT_MG-430_PM plate arrays with modified conditions as described in Allaire et al. Washing and staining of the hybridized arrays were completed as described in the GeneChip Expression analysis technical manual for HT plate arrays using the Genechip® Array Station (Affymetrix, Santa Clara, Calif.) with modifications as described in Allaire et al. The processed GeneChip® plate arrays were scanned using GeneTitan scanner (Affymetrix, Santa Clara, Calif.).
Affymetrix scans were subject to quality control (QC) measures. These tests included a visual inspection of the distribution of raw signal intensities and an assessment of RNA degradation, relative log expression (RLE), and normalized unsealed standard error (NUSE). All sample scans that passed these QC metrics were included in the analysis.
All CEL files were subjected to GC-content-based Robust Multi-array Average (GCRMA) normalization (version 2.20.0) (Irizarry R A, et al. Nucleic Acids Res 2003; 31:e15; Li C, et al. Genome Biol 2001; 2:[…]0032). Expression levels were log (base 2) transformed.
All calculations and analyses were carried out using R (version 2.11.1) and Bioconductor computational tools (Gentleman R. Springer Science+Business Media 2005).

With `COC(=O)/C=C/C(=O)O` [MMF, monomethyl fumarate] the “FC Akr1c12 (1422000_PM_at)” value (100MMF-vs-Veh, 12 h) was 1.52, the “FC Akr1c13 (1418672_PM_at)” value (100MMF-vs-Veh, 12 h) was 2.01 and the “FC Aldh1a7 (1418601_PM_at)” value (100MMF-vs-Veh, 12 h) was 1.74. The “FC Apob (1457554_PM_at)” value (100MMF-vs-Veh, 12 h) was −1.54, the “FC C030026M15Rik (1431418_PM_at)” value (100MMF-vs-Veh, 12 h) was −1.81 and the “FC Dio1 (1417991_PM_at)” value (100MMF-vs-Veh, 12 h) was −1.51. The “FC Ephx1 (1422438_PM_at)” value (100MMF-vs-Veh, 12 h) was 2.17, the “FC Gss (1448273_PM_at)” value (100MMF-vs-Veh, 12 h) was 1.57 and the “FC Gstm1 (1416416_PM_x_at)” value (100MMF-vs-Veh, 12 h) was 3.70. The “FC Gstm2 (1416411_PM_at)” value (100MMF-vs-Veh, 12 h) was 2.20, the “FC Kif1b (1451642_PM_at)” value (100MMF-vs-Veh, 12 h) was −1.51 and the “Number of genes, DMF Only / MMF Only” value (Jejunum) was 35. The “6-Sep, septin 6 (1424181_PM_at) differential expression” value (Jejunum, 2 hr) was 1.56, the “Areg (1421134_PM_at) differential expression” value (Jejunum, 2 hr) was 2.71 and the “Blvrb (1451386_PM_at) differential expression” value (Jejunum, 2 hr) was 1.57. For the same molecule, the “Bmp2 (1423635_PM_at) differential expression” value (Jejunum, 2 hr) was −1.55, the “Cbr1 (1460196_PM_at) differential expression” value (Jejunum, 2 hr) was 1.53 and the “Dnase2a (1430135_PM_at) differential expression” value (Jejunum, 2 hr) was 1.79. For the same molecule, the “Dppa5a (1416552_PM_at) differential expression” value (Jejunum, 2 hr) was 2.64, the “Ereg (1419431_PM_at) differential expression” value (Jejunum, 2 hr) was 2.00 and the “Ero1l (1419030_PM_at) differential expression” value (Jejunum, 2 hr) was 1.90. For the same molecule, the “Esd (1441604_PM_at) differential expression” value (Jejunum, 2 hr) was 1.52, the “Figf (1438953_PM_at) differential expression” value (Jejunum, 2 hr) was 1.63 and the “G6pd2 /// G6pdx (1422327_PM_s_at) differential expression” value (Jejunum, 2 hr) was 1.74. For the same molecule, the “Gabarapl1 (1416418_PM_at) differential expression” value (Jejunum, 2 hr) was 1.52, the “Gclc (1424296_PM_at) differential expression” value (Jejunum, 2 hr) was 3.99 and the “Gsr (1421816_PM_at) differential expression” value (Jejunum, 2 hr) was 2.19. The “Gss (1441931_PM_x_at) differential expression” value (Jejunum, 2 hr) was 1.92, the “Gsta3 (1423436_PM_at) differential expression” value (Jejunum, 2 hr) was 3.64 and the “Gsta4 (1416368_PM_at) differential expression” value (Jejunum, 2 hr) was 1.73. For the same molecule, the “Gstm1 (1416416_PM_x_at) differential expression” value (Jejunum, 2 hr) was 2.38, the “Hfe (1422645_PM_at) differential expression” value (Jejunum, 2 hr) was 1.73 and the “Hmox1 (1448239_PM_at) differential expression” value (Jejunum, 2 hr) was 1.81. For the same molecule, the “Htatip2 (1451814_PM_a_at) differential expression” value (Jejunum, 2 hr) was 1.53, the “Lpin2 (1452837_PM_at) differential expression” value (Jejunum, 2 hr) was 1.61 and the “Lrp8 (1440882_PM_at) differential expression” value (Jejunum, 2 hr) was 2.23. The “Mafg (1448916_PM_at) differential expression” value (Jejunum, 2 hr) was 1.95, the “Nqo1 (1423627_PM_at) differential expression” value (Jejunum, 2 hr) was 2.16 and the “Osgin1 (1424022_PM_at) differential expression” value (Jejunum, 2 hr) was 1.98. The “Pgm2 (1437240_PM_at) differential expression” value (Jejunum, 2 hr) was 2.09, the “Prr5l (1452834_PM_at) differential expression” value (Jejunum, 2 hr) was −1.64 and the “Prss8 (1418320_PM_at) differential expression” value (Jejunum, 2 hr) was 2.41. The “Setd4 (1435405_PM_at) differential expression” value (Jejunum, 2 hr) was 2.11, the “Slc2a1 (1426600_PM_at) differential expression” value (Jejunum, 2 hr) was 1.68 and the “Slc40a1 (1417061_PM_at) differential expression” value (Jejunum, 2 hr) was 2.73. For the same molecule, the “Slc48a1 (1450410_PM_a_at) differential expression” value (Jejunum, 2 hr) was 1.62, the “Slfn2 (1450165_PM_at) differential expression” value (Jejunum, 2 hr) was −1.82 and the “Sos1 (1421886_PM_at) differential expression” value (Jejunum, 2 hr) was −1.57. The “Srxn1 (1425351_PM_at) differential expression” value (Jejunum, 2 hr) was 1.77, the “St3gal6 (1449078_PM_at) differential expression” value (Jejunum, 2 hr) was 1.52 and the “Tkt (1436605_PM_at) differential expression” value (Jejunum, 2 hr) was 1.73. The “Tnfaip3 (1433699_PM_at) differential expression” value (Jejunum, 2 hr) was −1.67, the “Tox3 (1436600_PM_at) differential expression” value (Jejunum, 2 hr) was 1.81 and the “Ugt2b5 (1419622_PM_at) differential expression” value (Jejunum, 2 hr) was 3.13. For the same molecule, the “Abcc2 (1450109_PM_s_at) differential expression” value (Jejunum, 7 hr) was 1.51, the “Abcc3 (1428988_PM_at) differential expression” value (Jejunum, 7 hr) was 2.26 and the “Acsm5 (1437662_PM_at) differential expression” value (Jejunum, 7 hr) was 1.71. For the same molecule, the “Akr1c12 /// Akr1c13 (1450455_PM_s_at) differential expression” value (Jejunum, 7 hr) was 1.58, the “Akr1c13 (1418672_PM_at) differential expression” value (Jejunum, 7 hr) was 1.86 and the “Aldh1a7 (1418601_PM_at) differential expression” value (Jejunum, 7 hr) was 1.86. The “Areg (1421134_PM_at) differential expression” value (Jejunum, 7 hr) was 2.93, the “Asns (1451095_PM_at) differential expression” value (Jejunum, 7 hr) was 1.60 and the “Blvrb (1451386_PM_at) differential expression” value (Jejunum, 7 hr) was 1.55. For the same molecule, the “Capn13 (1437960_PM_at) differential expression” value (Jejunum, 7 hr) was −1.75, the “Cbr1 (1460196_PM_at) differential expression” value (Jejunum, 7 hr) was 1.83 and the “Ces1e (1419510_PM_at) differential expression” value (Jejunum, 7 hr) was 2.44. The “Ddc (1426215_PM_at) differential expression” value (Jejunum, 7 hr) was 2.03, the “Dppa5a (1416552_PM_at) differential expression” value (Jejunum, 7 hr) was 1.88 and the “Enkur (1428960_PM_at) differential expression” value (Jejunum, 7 hr) was −1.56. For the same molecule, the “Entpd5 (1433763_PM_at) differential expression” value (Jejunum, 7 hr) was 1.60, the “Esd (1441604_PM_at) differential expression” value (Jejunum, 7 hr) was 2.15 and the “Fam162a (1451385_PM_at) differential expression” value (Jejunum, 7 hr) was 1.67. The “G6pd2 /// G6pdx (1422327_PM_s_at) differential expression” value (Jejunum, 7 hr) was 2.06, the “G6pdx (1448354_PM_at) differential expression” value (Jejunum, 7 hr) was 1.76 and the “Gclc (1424296_PM_at) differential expression” value (Jejunum, 7 hr) was 2.87. For the same molecule, the “Gm3776 /// Gsta1 /// Gsta2 (1421041_PM_s_at) differential expression” value (Jejunum, 7 hr) was 1.90, the “Gm14446 (1435529_PM_at) differential expression” value (Jejunum, 7 hr) was −1.65 and the “Gpx2 (1449279_PM_at) differential expression” value (Jejunum, 7 hr) was 1.53. The “Gsr (1421816_PM_at) differential expression” value (Jejunum, 7 hr) was 3.13, the “Gss (1441931_PM_x_at) differential expression” value (Jejunum, 7 hr) was 2.20 and the “Gsta3 (1423436_PM_at) differential expression” value (Jejunum, 7 hr) was 5.71. For the same molecule, the “Gsta4 (1416368_PM_at) differential expression” value (Jejunum, 7 hr) was 2.52, the “Gstm1 (1416416_PM_x_at) differential expression” value (Jejunum, 7 hr) was 4.80 and the “Gstm2 (1416411_PM_at) differential expression” value (Jejunum, 7 hr) was 2.09. The “Gstm4 (1424835_PM_at) differential expression” value (Jejunum, 7 hr) was 5.75 and the “Gstm6 (1422072_PM_a_at) differential expression” value (Jejunum, 7 hr) was 2.23.
